Laboratory results reported in article PMC12688703, “NirA is a Cyanide‐Tolerant Nitrite Reductase Which Protects Pseudomonas aeruginosa From Self‐Poisoning” (Environmental Microbiology Reports, 2025).

Biological target: T1, CysI (Pseudomonas aeruginosa, UniProt Q9I2Q7)
T1 construct: full orf with N-terminal hexahistidine tag (pSKcysI-N), E. coli BL21 (DE3) suf++ with pCDF-cysG; IMAC and SEC
T1 sequence (Q9I2Q7 1-552): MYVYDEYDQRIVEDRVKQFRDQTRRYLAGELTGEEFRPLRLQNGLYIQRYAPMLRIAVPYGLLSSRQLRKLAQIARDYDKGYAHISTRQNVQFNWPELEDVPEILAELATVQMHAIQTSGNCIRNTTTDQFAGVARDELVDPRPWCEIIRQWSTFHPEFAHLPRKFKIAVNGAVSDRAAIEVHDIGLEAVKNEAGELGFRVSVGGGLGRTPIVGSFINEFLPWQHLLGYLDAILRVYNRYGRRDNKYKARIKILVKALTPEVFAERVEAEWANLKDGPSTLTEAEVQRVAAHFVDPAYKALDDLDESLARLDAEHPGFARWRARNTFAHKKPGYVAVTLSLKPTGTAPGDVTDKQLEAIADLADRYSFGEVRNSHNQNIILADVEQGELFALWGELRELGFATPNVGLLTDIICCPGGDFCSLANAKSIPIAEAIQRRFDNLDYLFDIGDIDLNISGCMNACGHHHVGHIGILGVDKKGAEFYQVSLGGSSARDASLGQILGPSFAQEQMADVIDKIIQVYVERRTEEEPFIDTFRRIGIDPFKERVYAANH
Assay: methyl viologen oxidation at […] nm
Assay type: biochemical
Settings: anaerobic; methyl viologen as electron donor

For `O=S(O)O` [hydrogen sulphite], the “methyl viologen oxidation at 605 nm” value was “Potassium nitrite and hydrogen sulphite were used as electron acceptors for NirA and CysI”.
